Measurements published in article PMC4917279 (Journal of Medicinal Chemistry, 2016).

How the values were obtained:
RIPK5 = molecular target: T1, RIPK5 (Homo sapiens, UniProt Q6XUX3); assay: KINOMEscan; assay type: binding; details: read-out: %Ctrl @ 1000 nM
T1 construct: purchased DiscoveRx KINOMEscan

HCK = molecular target: T2, HCK (Homo sapiens, UniProt P08631); assay: KINOMEscan; assay type: binding; details: read-out: %Ctrl @ 1000 nM
T2 construct: purchased DiscoveRx KINOMEscan

WEE2 = molecular target: T3, WEE2 (Homo sapiens, UniProt P0C1S8); assay: KINOMEscan; assay type: binding; details: read-out: %Ctrl @ 1000 nM
T3 construct: purchased DiscoveRx KINOMEscan

MAP4K5 = molecular target: T4, MAP4K5 (Homo sapiens, UniProt Q9Y4K4); assay: KINOMEscan; assay type: binding; details: read-out: %Ctrl @ 1000 nM
T4 construct: purchased DiscoveRx KINOMEscan

PIK3CA(E545K) = molecular target: T5, PIK3CA(E545K) (Homo sapiens, UniProt P42336, E545K); assay: KINOMEscan; assay type: binding; details: read-out: %Ctrl @ 1000 nM
T5 construct: purchased DiscoveRx KINOMEscan

DMPK2 = molecular target: T6, DMPK2 (Homo sapiens, UniProt Q6DT37); assay: KINOMEscan; assay type: binding; details: read-out: %Ctrl @ 1000 nM
T6 construct: purchased DiscoveRx KINOMEscan

TIE2 = molecular target: T7, TIE2 (Homo sapiens, UniProt Q02763); assay: KINOMEscan; assay type: binding; details: read-out: %Ctrl @ 1000 nM
T7 construct: purchased DiscoveRx KINOMEscan

EGFR(E746-A750del) = molecular target: T8, EGFR(E746-A750del) (Homo sapiens, UniProt P00533, DEL746-750); assay: KINOMEscan; assay type: binding; details: read-out: %Ctrl @ 1000 nM
T8 construct: purchased DiscoveRx KINOMEscan

AKT3 = molecular target: T9, AKT3 (Homo sapiens, UniProt Q9Y243); assay: KINOMEscan; assay type: binding; details: read-out: %Ctrl @ 1000 nM
T9 construct: purchased DiscoveRx KINOMEscan

WNK1 = molecular target: T10, WNK1 (Homo sapiens, UniProt Q9H4A3); assay: KINOMEscan; assay type: binding; details: read-out: %Ctrl @ 1000 nM
T10 construct: purchased DiscoveRx KINOMEscan

PIM3 = molecular target: T11, PIM3 (Homo sapiens, UniProt Q86V86); assay: KINOMEscan; assay type: binding; details: read-out: %Ctrl @ 1000 nM
T11 construct: purchased DiscoveRx KINOMEscan

SNARK = molecular target: T12, SNARK (Homo sapiens, UniProt Q9H093); assay: KINOMEscan; assay type: binding; details: read-out: %Ctrl @ 1000 nM
T12 construct: purchased DiscoveRx KINOMEscan

ROS1 = molecular target: T13, ROS1 (Homo sapiens, UniProt P08922); assay: KINOMEscan; assay type: binding; details: read-out: %Ctrl @ 1000 nM
T13 construct: purchased DiscoveRx KINOMEscan

PRKCQ = molecular target: T14, PRKCQ (Homo sapiens, UniProt Q04759); assay: KINOMEscan; assay type: binding; details: read-out: %Ctrl @ 1000 nM
T14 construct: purchased DiscoveRx KINOMEscan
T14 sequence (Q04759 whole entry): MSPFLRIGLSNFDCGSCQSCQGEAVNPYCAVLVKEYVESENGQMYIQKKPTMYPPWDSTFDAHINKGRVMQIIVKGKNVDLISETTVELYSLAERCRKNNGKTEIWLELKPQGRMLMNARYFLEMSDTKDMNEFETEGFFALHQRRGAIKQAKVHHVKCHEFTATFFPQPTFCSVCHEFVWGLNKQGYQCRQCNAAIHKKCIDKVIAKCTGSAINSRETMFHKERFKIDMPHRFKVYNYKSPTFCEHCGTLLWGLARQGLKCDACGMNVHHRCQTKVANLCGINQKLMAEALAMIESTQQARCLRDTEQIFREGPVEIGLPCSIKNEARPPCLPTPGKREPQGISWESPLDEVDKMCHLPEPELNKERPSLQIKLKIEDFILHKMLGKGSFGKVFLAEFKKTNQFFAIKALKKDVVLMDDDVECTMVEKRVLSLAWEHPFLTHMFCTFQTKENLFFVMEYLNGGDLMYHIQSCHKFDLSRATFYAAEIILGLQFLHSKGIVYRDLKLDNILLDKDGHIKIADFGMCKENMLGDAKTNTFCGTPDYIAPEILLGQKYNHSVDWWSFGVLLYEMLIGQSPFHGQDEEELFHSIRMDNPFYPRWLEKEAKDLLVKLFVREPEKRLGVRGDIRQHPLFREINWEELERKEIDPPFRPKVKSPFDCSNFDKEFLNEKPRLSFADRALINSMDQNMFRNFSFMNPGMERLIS

PAK3 = molecular target: T15, PAK3 (Homo sapiens, UniProt O75914); assay: KINOMEscan; assay type: binding; details: read-out: %Ctrl @ 1000 nM
T15 construct: purchased DiscoveRx KINOMEscan
T15 sequence (O75914 whole entry): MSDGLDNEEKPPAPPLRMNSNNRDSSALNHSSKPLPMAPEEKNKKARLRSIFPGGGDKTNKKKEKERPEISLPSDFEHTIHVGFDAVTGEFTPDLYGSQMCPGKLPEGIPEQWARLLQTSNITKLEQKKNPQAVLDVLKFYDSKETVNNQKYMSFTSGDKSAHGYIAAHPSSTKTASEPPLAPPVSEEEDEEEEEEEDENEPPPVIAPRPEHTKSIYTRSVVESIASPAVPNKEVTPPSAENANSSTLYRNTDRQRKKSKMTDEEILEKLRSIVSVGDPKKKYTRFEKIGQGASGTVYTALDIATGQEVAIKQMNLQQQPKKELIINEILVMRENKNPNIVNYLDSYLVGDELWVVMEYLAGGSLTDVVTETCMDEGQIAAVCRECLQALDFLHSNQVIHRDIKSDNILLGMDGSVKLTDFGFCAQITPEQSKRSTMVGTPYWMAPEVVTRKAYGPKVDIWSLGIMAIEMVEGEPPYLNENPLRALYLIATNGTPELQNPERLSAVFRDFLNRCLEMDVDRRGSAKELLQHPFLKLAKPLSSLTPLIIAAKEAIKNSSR

BIKE = molecular target: T16, BIKE (Homo sapiens, UniProt Q9NSY1); assay: KINOMEscan; assay type: binding; details: read-out: %Ctrl @ 1000 nM
T16 construct: purchased DiscoveRx KINOMEscan

MAP4K3 = molecular target: T17, MAP4K3 (Homo sapiens, UniProt Q8IVH8); assay: KINOMEscan; assay type: binding; details: read-out: %Ctrl @ 1000 nM
T17 construct: purchased DiscoveRx KINOMEscan

ERBB2 = molecular target: T18, ERBB2 (Homo sapiens, UniProt P04626); assay: KINOMEscan; assay type: binding; details: read-out: %Ctrl @ 1000 nM
T18 construct: purchased DiscoveRx KINOMEscan

LZK = molecular target: T19, LZK (Homo sapiens, UniProt O43283); assay: KINOMEscan; assay type: binding; details: read-out: %Ctrl @ 1000 nM
T19 construct: purchased DiscoveRx KINOMEscan

MLK3 = molecular target: T20, MLK3 (Homo sapiens, UniProt Q16584); assay: KINOMEscan; assay type: binding; details: read-out: %Ctrl @ 1000 nM
T20 construct: purchased DiscoveRx KINOMEscan

PKMYT1 = molecular target: T21, PKMYT1 (Homo sapiens, UniProt Q99640); assay: KINOMEscan; assay type: binding; details: read-out: %Ctrl @ 1000 nM
T21 construct: purchased DiscoveRx KINOMEscan

CLK3 = molecular target: T22, CLK3 (Homo sapiens, UniProt P49761); assay: KINOMEscan; assay type: binding; details: read-out: %Ctrl @ 1000 nM
T22 construct: purchased DiscoveRx KINOMEscan

MET = molecular target: T23, MET (Homo sapiens, UniProt P08581); assay: KINOMEscan; assay type: binding; details: read-out: %Ctrl @ 1000 nM
T23 construct: purchased DiscoveRx KINOMEscan

[1] = molecular target: T24, RPS6KA4(Kin.Dom.1-N-terminal) (Homo sapiens, UniProt O75676); assay: KINOMEscan; assay type: binding; details: read-out: %Ctrl @ 1000 nM
T24 construct: RPS6KA4(Kin.Dom.1-N-terminal); purchased DiscoveRx KINOMEscan
T24 sequence (O75676 33-371 limits assumed): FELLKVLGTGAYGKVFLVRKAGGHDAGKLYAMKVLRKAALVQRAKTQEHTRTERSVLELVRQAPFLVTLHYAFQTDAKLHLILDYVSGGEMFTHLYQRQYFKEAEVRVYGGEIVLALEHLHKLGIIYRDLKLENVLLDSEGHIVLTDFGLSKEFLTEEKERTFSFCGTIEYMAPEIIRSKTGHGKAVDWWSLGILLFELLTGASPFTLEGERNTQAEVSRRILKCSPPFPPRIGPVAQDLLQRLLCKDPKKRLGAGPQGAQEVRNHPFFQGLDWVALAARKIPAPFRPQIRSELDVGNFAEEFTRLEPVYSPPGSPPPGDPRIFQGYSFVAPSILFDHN

IKK-alpha = molecular target: T25, IKK-alpha (Homo sapiens, UniProt O15111); assay: KINOMEscan; assay type: binding; details: read-out: %Ctrl @ 1000 nM
T25 construct: purchased DiscoveRx KINOMEscan

BTK = molecular target: T26, BTK (Homo sapiens, UniProt Q06187); assay: KINOMEscan; assay type: binding; details: read-out: %Ctrl @ 1000 nM
T26 construct: purchased DiscoveRx KINOMEscan
T26 sequence (Q06187 whole entry): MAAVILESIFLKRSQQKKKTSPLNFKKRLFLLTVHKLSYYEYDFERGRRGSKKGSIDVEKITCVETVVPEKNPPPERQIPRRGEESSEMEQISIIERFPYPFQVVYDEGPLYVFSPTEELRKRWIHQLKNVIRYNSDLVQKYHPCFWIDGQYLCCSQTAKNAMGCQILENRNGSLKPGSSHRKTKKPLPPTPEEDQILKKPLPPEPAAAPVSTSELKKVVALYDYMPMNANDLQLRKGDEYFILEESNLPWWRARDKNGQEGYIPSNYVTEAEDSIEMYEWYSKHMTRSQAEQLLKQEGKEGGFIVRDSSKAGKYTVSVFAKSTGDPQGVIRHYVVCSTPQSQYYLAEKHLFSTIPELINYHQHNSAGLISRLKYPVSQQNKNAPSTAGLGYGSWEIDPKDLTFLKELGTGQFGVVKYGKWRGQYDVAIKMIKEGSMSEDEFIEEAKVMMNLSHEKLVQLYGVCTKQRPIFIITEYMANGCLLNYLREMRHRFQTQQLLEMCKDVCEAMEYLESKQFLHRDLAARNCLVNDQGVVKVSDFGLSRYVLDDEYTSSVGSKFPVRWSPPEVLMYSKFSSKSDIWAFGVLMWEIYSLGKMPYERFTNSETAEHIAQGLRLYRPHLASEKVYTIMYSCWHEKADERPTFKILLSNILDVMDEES

[2] = molecular target: T27, ABL1(Q252H)-nonphosphorylated (Homo sapiens, UniProt P00519, Q252H); assay: KINOMEscan; assay type: binding; details: read-out: %Ctrl @ 1000 nM
T27 construct: purchased DiscoveRx (KINOMEscan service)

NEK3 = molecular target: T28, NEK3 (Homo sapiens, UniProt P51956); assay: KINOMEscan; assay type: binding; details: read-out: %Ctrl @ 1000 nM
T28 construct: purchased DiscoveRx KINOMEscan

HPK1 = molecular target: T29, HPK1 (Homo sapiens, UniProt Q92918); assay: KINOMEscan; assay type: binding; details: read-out: %Ctrl @ 1000 nM
T29 construct: purchased DiscoveRx KINOMEscan

CAMK2G = molecular target: T30, CAMK2G (Homo sapiens, UniProt Q13555); assay: KINOMEscan; assay type: binding; details: read-out: %Ctrl @ 1000 nM
T30 construct: purchased DiscoveRx KINOMEscan

PIK3CD = molecular target: T31, PIK3CD (Homo sapiens, UniProt O00329); assay: KINOMEscan; assay type: binding; details: read-out: %Ctrl @ 1000 nM
T31 construct: purchased DiscoveRx KINOMEscan

PDGFRB = molecular target: T32, PDGFRB (Homo sapiens, UniProt P09619); assay: KINOMEscan; assay type: binding; details: read-out: %Ctrl @ 1000 nM
T32 construct: purchased DiscoveRx KINOMEscan

[3] = Exposure and tolerability after oral administration to mice; assay type: in vivo; details: 10–100 mg/kg po qd
PLK4 = molecular target: T33, PLK4 (Homo sapiens, UniProt O00444); assay: KINOMEscan; assay type: binding; details: read-out: %Ctrl @ 1000 nM
T33 construct: purchased DiscoveRx KINOMEscan

DYRK1B = molecular target: T34, DYRK1B (Homo sapiens, UniProt Q9Y463); assay: KINOMEscan; assay type: binding; details: read-out: %Ctrl @ 1000 nM
T34 construct: purchased DiscoveRx KINOMEscan
T34 sequence (Q9Y463 whole entry): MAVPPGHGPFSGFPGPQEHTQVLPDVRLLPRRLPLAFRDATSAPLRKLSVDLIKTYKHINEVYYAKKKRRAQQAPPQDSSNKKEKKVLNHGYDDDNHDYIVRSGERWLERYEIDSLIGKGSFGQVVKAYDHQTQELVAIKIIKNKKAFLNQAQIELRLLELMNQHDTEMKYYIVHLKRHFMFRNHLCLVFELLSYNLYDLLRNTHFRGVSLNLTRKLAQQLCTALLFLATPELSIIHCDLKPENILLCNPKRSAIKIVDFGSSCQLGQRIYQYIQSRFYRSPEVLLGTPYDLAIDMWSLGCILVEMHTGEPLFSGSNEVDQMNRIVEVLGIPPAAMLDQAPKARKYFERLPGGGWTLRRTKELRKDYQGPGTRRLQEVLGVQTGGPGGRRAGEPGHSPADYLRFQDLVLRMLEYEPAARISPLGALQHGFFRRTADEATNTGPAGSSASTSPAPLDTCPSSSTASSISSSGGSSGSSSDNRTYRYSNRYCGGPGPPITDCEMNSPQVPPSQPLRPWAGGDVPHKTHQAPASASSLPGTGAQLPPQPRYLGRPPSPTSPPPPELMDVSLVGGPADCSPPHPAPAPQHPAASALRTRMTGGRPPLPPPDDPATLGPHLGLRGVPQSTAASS

[4] = molecular target: T35, RSK1(Kin.Dom.1-N-terminal) (Homo sapiens, UniProt Q15418); assay: KINOMEscan; assay type: binding; details: read-out: %Ctrl @ 1000 nM
T35 construct: RSK1(Kin.Dom.1-N-terminal); purchased DiscoveRx KINOMEscan

CASK = molecular target: T36, CASK (Homo sapiens, UniProt O14936); assay: KINOMEscan; assay type: binding; details: read-out: %Ctrl @ 1000 nM
T36 construct: purchased DiscoveRx KINOMEscan

RIOK1 = molecular target: T37, RIOK1 (Homo sapiens, UniProt Q9BRS2); assay: KINOMEscan; assay type: binding; details: read-out: %Ctrl @ 1000 nM
T37 construct: purchased DiscoveRx KINOMEscan

p38-alpha = molecular target: T38, p38-alpha (Homo sapiens, UniProt Q16539); assay: KINOMEscan; assay type: binding; details: read-out: %Ctrl @ 1000 nM
T38 construct: purchased DiscoveRx KINOMEscan

ROCK2 = molecular target: T39, ROCK2 (Homo sapiens, UniProt O75116); assay: KINOMEscan; assay type: binding; details: read-out: %Ctrl @ 1000 nM
T39 construct: purchased DiscoveRx KINOMEscan
T39 sequence (O75116 whole entry): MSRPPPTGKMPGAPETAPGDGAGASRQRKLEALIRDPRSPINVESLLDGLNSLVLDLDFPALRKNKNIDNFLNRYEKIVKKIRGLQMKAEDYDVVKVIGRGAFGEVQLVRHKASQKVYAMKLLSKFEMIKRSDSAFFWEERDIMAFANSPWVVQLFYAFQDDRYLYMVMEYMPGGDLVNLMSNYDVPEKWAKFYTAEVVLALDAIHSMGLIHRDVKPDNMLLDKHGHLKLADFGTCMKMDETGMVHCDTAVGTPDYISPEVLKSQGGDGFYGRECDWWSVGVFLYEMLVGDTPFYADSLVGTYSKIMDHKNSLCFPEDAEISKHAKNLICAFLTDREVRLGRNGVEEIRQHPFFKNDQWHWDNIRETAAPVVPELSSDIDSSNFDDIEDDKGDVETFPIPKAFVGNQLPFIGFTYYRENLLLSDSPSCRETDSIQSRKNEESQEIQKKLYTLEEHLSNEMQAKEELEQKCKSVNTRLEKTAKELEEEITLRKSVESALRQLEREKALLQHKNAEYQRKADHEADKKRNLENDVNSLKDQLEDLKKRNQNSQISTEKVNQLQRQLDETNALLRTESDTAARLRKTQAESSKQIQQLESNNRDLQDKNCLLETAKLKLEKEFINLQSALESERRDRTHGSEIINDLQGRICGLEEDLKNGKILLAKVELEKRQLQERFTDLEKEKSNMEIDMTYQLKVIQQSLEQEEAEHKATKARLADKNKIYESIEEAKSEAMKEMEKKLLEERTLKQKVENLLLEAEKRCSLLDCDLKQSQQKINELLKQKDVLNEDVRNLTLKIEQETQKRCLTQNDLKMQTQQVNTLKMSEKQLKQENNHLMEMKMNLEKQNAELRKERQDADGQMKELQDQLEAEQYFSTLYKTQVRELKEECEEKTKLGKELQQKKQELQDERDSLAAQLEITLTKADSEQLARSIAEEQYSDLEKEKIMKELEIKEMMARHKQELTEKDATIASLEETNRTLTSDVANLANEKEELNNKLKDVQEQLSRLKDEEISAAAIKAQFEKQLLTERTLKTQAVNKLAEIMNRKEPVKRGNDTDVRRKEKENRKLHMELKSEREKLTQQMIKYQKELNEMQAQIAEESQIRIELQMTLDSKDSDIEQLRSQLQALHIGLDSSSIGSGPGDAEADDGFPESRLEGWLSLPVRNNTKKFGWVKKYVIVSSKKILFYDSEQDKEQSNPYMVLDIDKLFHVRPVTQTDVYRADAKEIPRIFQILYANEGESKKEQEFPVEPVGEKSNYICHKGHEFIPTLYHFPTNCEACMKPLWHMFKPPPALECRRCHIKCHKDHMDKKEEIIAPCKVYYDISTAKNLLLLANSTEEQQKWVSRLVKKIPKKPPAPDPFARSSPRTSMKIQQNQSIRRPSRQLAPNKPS

CLK4 = molecular target: T40, CLK4 (Homo sapiens, UniProt Q9HAZ1); assay: KINOMEscan; assay type: binding; details: read-out: %Ctrl @ 1000 nM
T40 construct: purchased DiscoveRx KINOMEscan

CDKL2 = molecular target: T41, CDKL2 (Homo sapiens, UniProt Q92772); assay: KINOMEscan; assay type: binding; details: read-out: %Ctrl @ 1000 nM
T41 construct: purchased DiscoveRx KINOMEscan
T41 sequence (Q92772 whole entry): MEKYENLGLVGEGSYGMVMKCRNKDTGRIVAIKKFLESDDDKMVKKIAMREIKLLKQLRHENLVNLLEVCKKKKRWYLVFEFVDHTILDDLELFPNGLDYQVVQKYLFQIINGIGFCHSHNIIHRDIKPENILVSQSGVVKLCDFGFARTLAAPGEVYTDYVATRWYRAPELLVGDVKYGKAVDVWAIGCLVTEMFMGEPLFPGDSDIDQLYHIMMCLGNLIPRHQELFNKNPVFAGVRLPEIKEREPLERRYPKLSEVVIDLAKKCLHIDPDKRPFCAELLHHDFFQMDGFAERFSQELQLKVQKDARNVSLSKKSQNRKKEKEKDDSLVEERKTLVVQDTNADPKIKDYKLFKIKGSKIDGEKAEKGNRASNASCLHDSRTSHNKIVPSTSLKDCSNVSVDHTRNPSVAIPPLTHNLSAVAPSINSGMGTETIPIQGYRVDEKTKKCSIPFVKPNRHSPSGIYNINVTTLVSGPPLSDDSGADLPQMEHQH

TNIK = molecular target: T42, TNIK (Homo sapiens, UniProt Q9UKE5); assay: KINOMEscan; assay type: binding; details: read-out: %Ctrl @ 1000 nM
T42 construct: purchased DiscoveRx KINOMEscan

CCN(C(=O)CO)[C@H]1CN(/C(=N\C#N)Nc2cccc(OC(F)F)c2)N=C1c1ccc(Cl)c(Cl)c1 [(S)-4]
remaining binding at 1 µM (RIPK5): 90% | remaining binding at 1 µM (HCK): 68% | remaining binding at 1 µM (WEE2): 100% | remaining binding at 1 µM (MAP4K5): 100% | remaining binding at 1 µM (PIK3CA(E545K)): 71% | remaining binding at 1 µM (DMPK2): 66% | remaining binding at 1 µM (TIE2): 100% | remaining binding at 1 µM (EGFR(E746-A750del)): 66% | remaining binding at 1 µM (AKT3): 100% | remaining binding at 1 µM (WNK1): 100% | remaining binding at 1 µM (PIM3): 88% | remaining binding at 1 µM (SNARK): 100% | remaining binding at 1 µM (ROS1): 68% | remaining binding at 1 µM (PRKCQ): 100% | remaining binding at 1 µM (PAK3): 100% | remaining binding at 1 µM (BIKE): 80% | remaining binding at 1 µM (MAP4K3): 90% | remaining binding at 1 µM (ERBB2): 87% | remaining binding at 1 µM (LZK): 83% | remaining binding at 1 µM (MLK3): 69% | remaining binding at 1 µM (PKMYT1): 100% | remaining binding at 1 µM (CLK3): 94% | remaining binding at 1 µM (MET): 100% | remaining binding at 1 µM [1]: 100% | remaining binding at 1 µM (IKK-alpha): 92% | remaining binding at 1 µM (BTK): 79% | remaining binding at 1 µM [2]: 66% | remaining binding at 1 µM (NEK3): 95% | remaining binding at 1 µM (HPK1): 88% | remaining binding at 1 µM (CAMK2G): 89% | remaining binding at 1 µM (PIK3CD): 81% | remaining binding at 1 µM (PDGFRB): 100% | Tolerability [3]: well tolerated | remaining binding at 1 µM (PLK4): 56% | remaining binding at 1 µM (DYRK1B): 74% | remaining binding at 1 µM [4]: 100% | remaining binding at 1 µM (CASK): 61% | remaining binding at 1 µM (RIOK1): 77% | remaining binding at 1 µM (p38-alpha): 86% | remaining binding at 1 µM (ROCK2): 95% | remaining binding at 1 µM (CLK4): 94% | remaining binding at 1 µM (CDKL2): 100% | remaining binding at 1 µM (TNIK): 100%
